Measurements taken from patent US6759399B1, “Use of antimineralocorticoid compounds against narcotic withdrawal syndrome” (Aventis Pharma S.A., priority 1995, dated 2004).
Where “and” joins values, the source holds several entries; their conditions need not be identical. Equal values may be shown once.

What was measured:
[1] = system: morphinic withdrawal syndrome induced by naloxone in mice; assay: Withdrawal syndrome induced by naloxone in mice treated with morphine (jumping test); conditions: for % protection: relative to the morphine group
[2] = system: self-administration of cocaine in rats; assay: Dependence induced by cocaine: self-administration of cocaine in trained rats; type: in vivo; conditions: 1 hour before session
Procedure: The anti-mineralocorticoid product AM2 was tested on 5 rats which were trained in the self-administration of cocaine during daily periods of one hour.
These rats were pre-treated 1 hour before the start of the self-administration sessions.
The product AM2 dissolved in a saline solution was administered by intra-peritoneal route. The doses range from 10 to 100 mg/kg.

[3] = antimineralocorticoid alone 4 × 10 mg/kg p.o., no morphine, naloxone 100 mg/kg i.p.
[4] = antimineralocorticoid alone 4 × 20 mg/kg p.o., no morphine, naloxone 100 mg/kg i.p.
[5] = morphine 799 mg/kg s.c. + antimineralocorticoid 4 × 10 mg/kg p.o., naloxone 100 mg/kg i.p.
[6] = morphine 799 mg/kg s.c. + antimineralocorticoid 4 × 10 mg/kg p.o.
[7] = morphine 799 mg/kg s.c. + antimineralocorticoid 4 × 20 mg/kg p.o., naloxone 100 mg/kg i.p.
[8] = morphine 799 mg/kg s.c. + antimineralocorticoid 4 × 20 mg/kg p.o.

Question: Which “Number of jumps/10 minutes (m ± sem)” value [1, 3] does the source give for `CC(=O)S[C@@H]1CC2=CC(=O)CC[C@]2(C)[C@H]2CC[C@@]3(C)[C@@H](CC[C@@]34CCC(=O)O4)[C@H]12` [AM1, γ-lactone of 7α-acetylthio-17β-hydroxy-3-oxo-17α-pregn-4-ene-21-carboxylic acid] here?
Answer: 3 ± 2 jumps/10 minutes

Question: What about the “Number of jumps/10 minutes (m ± sem)” value [1, 4] of the same compound?
Answer: 11 ± 4 jumps/10 minutes

Question: And the “Number of jumps/10 minutes (m ± sem)” value [1, 5]?
Answer: 51 ± 7 jumps/10 minutes

Question: And the “% protection” value [1, 6]?
Answer: −33%

Question: What about the “Number of jumps/10 minutes (m ± sem)” value [1, 7] of the same compound?
Answer: 77 ± 8 jumps/10 minutes

Question: What about the “% protection” value [1, 8] of the same compound?
Answer: −32%

Question: For `CCC[C@@H]1CC2=CC(=O)CC[C@]2(C)[C@H]2CC[C@@]3(C)[C@@H](CC[C@@]3(O)CCC(=O)[O-])[C@H]12.[K+]` [AM2, potassium 17β-hydroxy 3-oxo 7α-propyl-(17α)-pregn-4-ene-21-carboxylate], which “effect on the self-administration of cocaine” value ([2]; pre-treatment with 10 or 20 mg/kg intra-peritoneal) is on record?
Answer: little or no effect

Question: And the “effect on the self-administration of cocaine” value ([2]; pre-treatment with 50 or 75 mg/kg intra-peritoneal)?
Answer: significant reduction

Question: What about the “Number of jumps/10 minutes (m ± sem)” value [1, 3] of the same compound?
Answer: 2 ± 2 jumps/10 minutes

Question: And the “Number of jumps/10 minutes (m ± sem)” value [1, 4]?
Answer: 4 ± 4 jumps/10 minutes

Question: What about the “Number of jumps/10 minutes (m ± sem)” value ([1]; antimineralocorticoid alone 4 × 50 mg/kg p.o., no morphine, naloxone 100 mg/kg i.p.) of the same compound?
Answer: 3 ± 2 jumps/10 minutes

Question: What about the “Number of jumps/10 minutes (m ± sem)” value [1, 5] of the same compound?
Answer: 76 ± 16 jumps/10 minutes

Question: And the “% protection” value [1, 6]?
Answer: −25%

Question: And the “Number of jumps/10 minutes (m ± sem)” value [1, 7]?
Answer: 51 ± 8 jumps/10 minutes

Question: And the “% protection” value [1, 8]?
Answer: −48%

Question: What about the “Number of jumps/10 minutes (m ± sem)” value ([1]; morphine 799 mg/kg s.c. + antimineralocorticoid 4 × 50 mg/kg p.o., naloxone 100 mg/kg i.p.) of the same compound?
Answer: 61 ± 8 jumps/10 minutes

Question: What about the “% protection” value ([1]; morphine 799 mg/kg s.c. + antimineralocorticoid 4 × 50 mg/kg p.o.) of the same compound?
Answer: −40%

Question: For `CN1CC[C@]23c4c5ccc(O)c4O[C@H]2[C@@H](O)C=C[C@H]3[C@H]1C5` [Morphine, morphine], which “Number of jumps/10 minutes (m ± sem)” value ([1]; morphine alone 799 mg/kg s.c. (cumulative over 4 days), naloxone 100 mg/kg i.p. on day 4) is on record?
Answer: 114 ± 8 jumps/10 minutes and 76 ± 15 jumps/10 minutes and 102 ± 10 jumps/10 minutes and 99 ± 13 jumps/10 minutes
